Structures can show the parent of a compound that is named as a salt.
How the values were obtained:
[1] = biological target: T1, Recombinant human LSD1 (172–852 aa) (Homo sapiens, UniProt O60341); conditions: for fold reduction in LSD1 inhibitory potency vs 28a, 28b: 29a, 29b vs 28a; for LSD1 IC50 level in words: potency range in words; for fold reduction in LSD1 inhibitory potency vs 23a, 23b: 24a, 24b vs 23a; for fold more potent at LSD1 than 8a and 8b, respectively: 21a vs 8a, 21b vs 8b
Description: (§1) LSD1 or LSD2 enzyme inhibition assay was performed with Lance Ultra LSD1 Histone H3-Lysine 4 Demethylase Assay kit (Perkin Elmer) according to the manufacturer's protocol. […] The test was carried out in triplicate. And the IC50 data was calculated using the software GraphPad Prism 5, and chosen the equation “sigmoidal dose–response (variable slope)” for curve fitting.

[2] = biological target: T1, Recombinant human LSD1 (172–852 aa); experiment: biochemical
Description: as §1

[3] = biological target: T2, MAO-A (Homo sapiens, UniProt P21397); experiment: biochemical; conditions: MAO-A, IC50, Table 1; mean ± SEM, eight-point experiments, three independent experiments
T2 sequence (P21397 1-527): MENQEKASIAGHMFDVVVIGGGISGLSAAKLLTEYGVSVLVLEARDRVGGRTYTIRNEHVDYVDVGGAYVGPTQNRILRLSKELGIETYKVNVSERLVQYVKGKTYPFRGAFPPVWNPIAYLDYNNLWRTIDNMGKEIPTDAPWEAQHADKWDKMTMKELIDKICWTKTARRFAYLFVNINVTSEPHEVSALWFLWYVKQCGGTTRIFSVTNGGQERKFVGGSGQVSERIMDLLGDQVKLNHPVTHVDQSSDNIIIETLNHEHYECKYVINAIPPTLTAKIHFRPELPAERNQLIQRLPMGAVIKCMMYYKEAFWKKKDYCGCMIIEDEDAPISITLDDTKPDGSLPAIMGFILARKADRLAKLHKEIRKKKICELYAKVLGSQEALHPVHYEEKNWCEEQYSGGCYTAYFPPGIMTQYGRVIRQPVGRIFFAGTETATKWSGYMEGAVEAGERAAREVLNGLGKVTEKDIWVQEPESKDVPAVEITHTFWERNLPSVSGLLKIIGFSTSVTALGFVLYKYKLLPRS
Description: (§2) MAO-A and MAO-B enzymes were purchased from Sigma-Aldrich and the inhibition assay was tested with Promega MAO-Glo™ Assay kit according to the manufacturer's protocol. The luminescent signals were detected using Envision (PerkinElmer). The test was carried out in triplicate. And the IC50 data was calculated using the software GraphPad Prism 5, and chosen the equation “sigmoidal dose–response (variable slope)” for curve fitting.

[4] = biological target: T3, MAO-B (Homo sapiens, UniProt P27338); experiment: biochemical; conditions: MAO-B, IC50, Table 1; mean ± SEM, eight-point experiments, three independent experiments
T3 sequence (P27338 1-520): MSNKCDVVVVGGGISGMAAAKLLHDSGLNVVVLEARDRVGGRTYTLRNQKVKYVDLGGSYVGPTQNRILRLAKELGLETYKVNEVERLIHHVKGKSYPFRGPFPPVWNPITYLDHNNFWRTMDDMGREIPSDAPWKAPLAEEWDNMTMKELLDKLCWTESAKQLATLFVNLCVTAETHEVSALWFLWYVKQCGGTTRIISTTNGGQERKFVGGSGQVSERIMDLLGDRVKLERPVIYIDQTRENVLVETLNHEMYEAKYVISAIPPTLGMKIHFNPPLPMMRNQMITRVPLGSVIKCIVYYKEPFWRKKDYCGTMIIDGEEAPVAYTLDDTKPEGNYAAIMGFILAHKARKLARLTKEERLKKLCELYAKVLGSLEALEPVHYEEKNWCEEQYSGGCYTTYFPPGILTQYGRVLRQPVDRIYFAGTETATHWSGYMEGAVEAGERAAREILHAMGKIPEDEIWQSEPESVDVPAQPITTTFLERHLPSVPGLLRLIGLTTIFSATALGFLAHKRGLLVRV
Description: as §2

SMILES | IC50 [2] [nM] | IC50 [3] [µM] | IC50 [4] [µM] | other results
Cl.N[C@@H]1CC12CCc1cc(-c3ccc(F)cc3)ccc12 (stereo in doubt) [Compound 29a, (2R)-5′-(4-Fluorophenyl)-2′,3′-dihydrospiro[cyclopropane-1,1′-inden]-2-amine hydrochloride] | 300 ± 10 | – | – | fold reduction in LSD1 inhibitory potency vs 28a, 28b [1]: approximately 3 fold
COc1ccccc1CN[C@H]1CC12CCc1ccccc12 (stereo in doubt) [Compound 14b, (2S)-N-(2-Methoxybenzyl)-2′,3′-dihydrospiro[cyclopropane-1,1′-inden]-2-amine] | – | 1.7 ± 0.3 | 70 ± 35 | –
O=C(CN[C@H]1CC12CCc1ccccc12)N1CCOCC1 (stereo in doubt) [Compound 25b, 2-(((2S)-2′,3′-Dihydrospiro[cyclopropane-1,1′-inden]-2-yl)amino)-1-morpholinoethan-1-one hydrochloride] | 22000 ± 4000 | – | – | –
COc1ccc(Br)cc1CN[C@@H]1CC12CCc1ccccc12 (stereo in doubt) [Compound 16a, (2R)-N-(5-Bromo-2-methoxybenzyl)-2′,3′-dihydrospiro[cyclopropane-1,1′-inden]-2-amine] | – | 3.7 ± 0.8 | 1.2 ± 0.2 | –
NC1CCC(N[C@@H]2C[C@H]2c2ccccc2)CC1 (stereo partly drawn) [Compound 6, N1-[(1R, 2S)-2-phenylcyclopropyl]cyclohexane-1,4-diamine dihydrochloride, reference compound] | – | > 100 | – | –
COc1ccccc1CN[C@@H]1CC12CCc1ccccc12 (stereo in doubt) [Compound 14a, (2R)-N-(2-Methoxybenzyl)-2′,3′-dihydrospiro[cyclopropane-1,1′-inden]-2-amine] | – | 5.9 ± 1.1 | 12 ± 1 | –
COc1ccc(CN[C@H]2CC23CCc2ccccc23)c(Cl)c1OC (stereo in doubt) [Compound 20b, (2S)-N-(2-Chloro-3,4-dimethoxybenzyl)-2′,3′-dihydrospiro[cyclopropane-1,1′-inden]-2-amine] | – | 5 ± 1.8 | 7 ± 0.7 | –
COc1ncccc1CN[C@H]1CC12CCc1ccccc12 (stereo in doubt) [Compound 22b, (2S)-N-((2-Methoxypyridin-3-yl)methyl)-2′,3′-dihydrospiro[cyclopropane-1,1′-inden]-2-amine] | 10 ± 5 | > 100 | 68 ± 8 | –
Cl.N[C@H]1CC12CCc1cc(-c3ccc(F)cc3)ccc12 (stereo in doubt) [Compound 29b, (2S)-5′-(4-Fluorophenyl)-2′,3′-dihydrospiro[cyclopropane-1,1′-inden]-2-amine hydrochloride] | 6000 ± 800 | – | – | fold reduction in LSD1 inhibitory potency vs 28a, 28b [1]: approximately 3 fold
COc1ccc(F)cc1CN[C@@H]1CC12CCc1cc(-c3ccccc3)ccc12 (stereo in doubt) [Compound 30a, (2R)-N-(5-Fluoro-2-methoxybenzyl)-5′-phenyl-2′,3′-dihydrospiro[cyclopropane-1,1′-inden]-2-amine] | 1700 ± 100 | – | – | LSD1 IC50 level in words [1]: single digit micromolar range
COc1ccc(CN[C@@H]2CC23CCc2cc(-c4ccccc4)ccc23)c(Cl)c1OC (stereo in doubt) [Compound 31a, (2R)-N-(2-Chloro-3,4-dimethoxybenzyl)-5′-phenyl-2′,3′-dihydrospiro[cyclopropane-1,1′-inden]-2-amine] | 8900 ± 1200 | – | – | LSD1 IC50 level in words [1]: single digit micromolar range
COc1ncccc1CN[C@@H]1CC12CCc1ccccc12 (stereo in doubt) [Compound 22a, (2R)-N-((2-Methoxypyridin-3-yl)methyl)-2′,3′-dihydrospiro[cyclopropane-1,1′-inden]-2-amine] | 32 ± 6 | > 100 | 47 ± 5 | fold less potent at LSD1 than the cis-isomer ([1]; 22a vs 22b): 3 fold
COc1ccc(F)cc1CN[C@H]1CC12CCc1cc(-c3ccccc3)ccc12 (stereo in doubt) [Compound 30b, (2S)-N-(5-Fluoro-2-methoxybenzyl)-5′-phenyl-2′,3′-dihydrospiro[cyclopropane-1,1′-inden]-2-amine] | 4400 ± 300 | – | – | LSD1 IC50 level in words [1]: single digit micromolar range
Fc1cccnc1CN[C@@H]1CC12CCc1ccccc12 (stereo in doubt) [Compound 24a, (2R)-N-((3-Fluoropyridin-2-yl)methyl)-2′,3′-dihydrospiro[cyclopropane-1,1′-inden]-2-amine] | 250 ± 10 | – | – | fold reduction in LSD1 inhibitory potency vs 23a, 23b [1]: ≥ 4 fold
Fc1ccccc1CN[C@H]1CC12CCc1ccccc12 (stereo in doubt) [Compound 15b, (2S)-N-(2-Fluorobenzyl)-2′,3′-dihydrospiro[cyclopropane-1,1′-inden]-2-amine] | – | 2.5 ± 0.1 | 32 ± 3 | –
Fc1cccnc1CN[C@H]1CC12CCc1ccccc12 (stereo in doubt) [Compound 24b, (2S)-N-((3-Fluoropyridin-2-yl)methyl)-2′,3′-dihydrospiro[cyclopropane-1,1′-inden]-2-amine] | 470 ± 20 | – | – | fold reduction in LSD1 inhibitory potency vs 23a, 23b [1]: ≥ 4 fold
N[C@H]1CC12CCc1cc(-c3ccccc3)ccc12 (stereo in doubt) [Compound 28b, (2S)-5′-Phenyl-2′,3′-dihydrospiro[cyclopropane-1,1′-inden]-2-amine hydrochloride] | 2700 ± 200 | – | – | –
c1ccc(CN[C@@H]2CC23CCc2ccccc23)cc1 (mixture of isomers) [Compound 13a, (2R)-N-Benzyl-2′,3′-dihydrospiro[cyclopropane-1,1′-inden]-2-amine] | 3300 ± 600 | – | – | –
c1cncc(CN[C@@H]2CC23CCc2ccccc23)c1 (mixture of isomers) [Compound 21a, (2R)-N-(Pyridin-3-ylmethyl)-2′,3′-dihydrospiro[cyclopropane-1,1′-inden]-2-amine] | 17 ± 3 | 10.8 ± 1.1 | 15 ± 1 | fold more potent at LSD1 than 8a and 8b, respectively [1]: 10 fold
COc1ccc(CN[C@@H]2CC23CCc2ccccc23)c(Cl)c1OC (stereo in doubt) [Compound 20a, (2R)-N-(2-Chloro-3,4-dimethoxybenzyl)-2′,3′-dihydrospiro[cyclopropane-1,1′-inden]-2-amine] | – | 1.4 ± 0.1 | 20 ± 1 | –
COc1ccc(CNC2CC23CCc2ccccc23)cc1OC [Compound 19a, (2R)-N-(3,4-Fimethoxybenzyl)-2′,3′-dihydrospiro[cyclopropane-1,1′-inden]-2-amine] | – | 11.7 ± 2.4 | 15 ± 2 | –
COc1ccc(F)cc1CN[C@@H]1CC12CCc1cc(-c3ccc(F)cc3)ccc12 (stereo in doubt) [Compound 32a, (2R)-N-(5-Fluoro-2-methoxybenzyl)-5′-(4-fluorophenyl)-2′,3′-dihydrospiro[cyclopropane-1,1′-inden]-2-amine] | 2600 ± 500 | – | – | LSD1 IC50 level in words [1]: single digit micromolar range
COc1ccc(CNC2CC23CCc2ccccc23)cc1OC [Compound 19b, (2S)-N-(3,4-Fimethoxybenzyl)-2′,3′-dihydrospiro[cyclopropane-1,1′-inden]-2-amine] | – | 3.1 ± 0.2 | 27 ± 4 | –
COc1ccc(Br)cc1CN[C@H]1CC12CCc1ccccc12 (stereo in doubt) [Compound 16b, (2S)-N-(5-Bromo-2-methoxybenzyl)-2′,3′-dihydrospiro[cyclopropane-1,1′-inden]-2-amine] | – | 0.39 ± 0.19 | 7.7 ± 3.8 | –
Fc1ccccc1CN[C@@H]1CC12CCc1ccccc12 (mixture of isomers) [Compound 15a, (2R)-N-(2-Fluorobenzyl)-2′,3′-dihydrospiro[cyclopropane-1,1′-inden]-2-amine] | – | 4.8 ± 0.5 | 9.8 ± 2.3 | –
O=C(CN[C@@H]1CC12CCc1ccccc12)N1CCOCC1 (stereo in doubt) [Compound 25a, 2-(((2R)-2′,3′-Dihydrospiro[cyclopropane-1,1′-inden]-2-yl)amino)-1-morpholinoethan-1-one hydrochloride] | 1400 ± 100 | – | – | –
c1cncc(CN[C@H]2CC23CCc2ccccc23)c1 (mixture of isomers) [Compound 21b, (2S)-N-(Pyridin-3-ylmethyl)-2′,3′-dihydrospiro[cyclopropane-1,1′-inden]-2-amine] | 20 ± 3 | 6 ± 1.1 | 28 ± 6 | fold more potent at LSD1 than 8a and 8b, respectively [1]: 39 fold
